Reference: article PMC6753678, “Fueling Open Innovation for Malaria Transmission-Blocking Drugs: Hundreds of Molecules Targeting Early Parasite Mosquito Stages” (Frontiers in Microbiology, 2019)
Read-outs that look alike come from different tables or passages of the source.

Columns and labels:
[1] = tested on: 3D7-strain P. falciparum asexual parasites; experiment: P. falciparum asexual growth inhibition assay (Pf GIA); assay type: cell-based, Plasmodium falciparum; details: dose response confirmation; read-out: Pf asexual growth inhibition assays IC50
Summary of the method: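 LDH readout: absorbance at 650 nm after 10 min at room temperature with lactate/APAD/NBT/diaphorase mix on thawed plates. Cultures (0.25% parasitemia, 2% hematocrit) were treated 72 h at 37°C in low-oxygen gas. Inhibition was normalised to 50 μM chloroquine and DMSO; n=3 biological replicates.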

HepG2 cells = experiment: HepG2 cytotoxicity assay; details: for Pb ODA (this manuscript) HepG2 cytoxicity: HepG2 cytotoxicity listed with the Pb ODA data set (this manuscript); for IC50: read-out: HepG2 cytotoxicity assay IC50, dose response confirmation
Summary of the method: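 HepG2 cells, 2,500 per well in MEM with 10% FBS and 1% NEAA, exposed to compounds for 48 h at 37°C, 5% CO2. Viability read by fluorescence; percent inhibition relative to 50 μM doxorubicin and DMSO controls.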

[2] = tested on: P. berghei ookinete development; details: for % inhibition, Replicate A / % inhibition, Replicate B: primary screen at 1 μM
[3] = read-out: Pb ODA (this manuscript) IC50, P. berghei ookinete development assay, this manuscript
[4] = read-out: Pb Ookinete development assay IC50, dose response confirmation
[5] = unified HepG2 value across the three screens
[6] = read-out: Pb ODA IC50, this manuscript
[7] = HepG2 values of the three screens unified

| SMILES | IC50 [1] [nM] | Pb ODA (this manuscript) HepG2 cytoxicity (HepG2 cells) [µM] | IC50 (HepG2 cells) [nM] | Is compound selective in assay? Pb ODA active? [2] | % inhibition, Replicate A [2] [%] | % inhibition, Replicate B [2] [%] | IC50 [2, 3] [nM] | IC50 [2, 4] [nM] | Unified cytotox (HepG2 cells; [5]) [µM] | Is compound selective in assay? Pb ODA active? ([2]; 1: YES, 0: NO) | IC50 [2, 6] [nM] | HepG2 cytoxicity (Pb ODA, this manuscript) (HepG2 cells) [µM] | Unified cytotox (HepG2 cells; [7]) [µM] |
| --- | --- | --- | --- | --- | --- | --- | --- | --- | --- | --- | --- | --- | --- |
| Cc1nc2nc(N)nc(N)c2c(C)c1Cc1ccc(N)cc1.Cl [TCMDC-137633] | 287 | 0.08 | 80 | 0 (key: 1: YES; 0: NO) | 2.48 | 52.30 | 6210 | 6210 | – | – | – | – | – |
| COc1ccc2nc3cc(Cl)ccc3c(NCc3ccccc3)c2c1.Cl [TCMDC-137663] | 424 | 41.69 | 41700 | 1 (key: 1: YES; 0: NO) | 39.90 | 59.60 | 1630 | 1630 | – | – | – | – | – |
| Cc1nc2nc(N)nc(N)c2c(C)c1Cc1ccccc1.Cl [TCMDC-137670] | 169 | 0.03 | 30 | 0 (key: 1: YES; 0: NO) | 51.61 | 57.72 | 3020 | 3020 | – | – | – | – | – |
| Nc1nc(N)c2c(ccc3c2ncn3Cc2ccccc2)n1 [TCMDC-137749] | 244 | – | 1150 | – | 48.44 | 74.97 | – | 4450 | 1.15 | 0 (0: NO) | 4450 | – | – |
| CCC1=C[C@@H]2CN(C1)Cc1c([nH]c3ccccc13)[C@@](C(=O)OC)(c1cc3c(cc1OC)N(C)[C@H]1[C@@](O)(C(=O)OC)[C@H](O)[C@]4(CC)C=CCN5CC[C@]31[C@@H]54)C2.O=S(=O)(O)O [TCMDC-137769] | 213 | – | 41200 | – | 141.80 | 104.79 | – | 365 | 41.21 | 1 (1: YES) | 360 | – | – |
| Nc1nc(N)c2c(ccc3c2ccn3Cc2ccc3c(c2)OCO3)n1 [TCMDC-137808] | < 0.2 | – | 32.4 | – | 57.79 | 75.32 | – | 447 | – | 0 (0: NO) | 450 | 0.0324 | 0.0324 |
| COc1cccc(Cn2ccc3c4c(N)nc(N)nc4ccc32)c1 [TCMDC-137811] | < 0.2 | – | 12.9 | – | 65.46 | 68.96 | – | 1560 | – | 0 (0: NO) | 1560 | 0.0129 | 0.0129 |
| Cc1ccccc1Cn1ccc2c3c(N)nc(N)nc3ccc21 [TCMDC-137812] | < 0.3 | – | 8.28 | – | 41.40 | 62.61 | – | 429 | – | 0 (0: NO) | 430 | 0.00828 | 0.00828 |
| CCN(C)C(=O)n1ncc2c3c(N)nc(N)nc3ccc21 [TCMDC-137828] | 86 | 0.22 | 220 | 0 (key: 1: YES; 0: NO) | 30.59 | 54.76 | 2560 | 2560 | – | – | – | – | – |
| CCC(C)(C)c1ccc2nc(N)nc(N)c2c1C [TCMDC-137829] | 1.07 | – | 1.7 | – | 40.64 | 76.04 | – | 3100 | 0.0017 | 0 (0: NO) | 3100 | – | – |
| CCc1cc2c3c(N)nc(N)nc3ccc2n1CC [TCMDC-137851] | 2.53 | – | 22.4 | – | 53.59 | 40.48 | – | 986 | – | 0 (0: NO) | 990 | 0.0224 | 0.0224 |
| Cl.Nc1nc(N)c2c(ccc3c2cnn3S(=O)(=O)N2CCCC2)n1 [TCMDC-137852] | 3.8 | 0.00412 | 4.12 | 0 (key: 1: YES; 0: NO) | 40.87 | 51.00 | – | 1530 | – | – | – | – | – |
| Cl.Nc1nc(N)c2c(ccc3nn(S(=O)(=O)N4CCCC4)cc32)n1 [TCMDC-137854] | 144 | 0.12 | 120 | 0 (key: 1: YES; 0: NO) | 55.32 | 26.78 | 5300 | 5300 | – | – | – | – | – |
| CCn1c(C(C)C)cc2c3c(N)nc(N)nc3ccc21 [TCMDC-137856] | 6.37 | – | 3.02 | – | 104.91 | 74.96 | – | 588 | – | 0 (0: NO) | 590 | 0.00302 | 0.00302 |
| Cc1cc2c3c(N)nc(N)nc3ccc2n1C(C)C [TCMDC-137864] | 4 | – | 33.1 | – | 66.13 | 75.37 | – | 2320 | – | 0 (0: NO) | 2320 | 0.0331 | 0.0331 |
| Nc1nc(N)c2c(Cl)c(N3CCOCC3)ccc2n1 [TCMDC-137868] | 72 | – | 8.61 | – | 53.12 | 26.39 | – | 3800 | 0.00861 | 0 (0: NO) | 3800 | – | – |
| CCC(C(C)C)n1ccc2c3c(N)nc(N)nc3ccc21 (stereo not drawn) [TCMDC-137872] | < 0.2 | – | 1.7 | – | 63.79 | 69.72 | – | 474 | – | 0 (0: NO) | 470 | 0.0017 | 0.0017 |
| Cl.OCC(CO)(CO)NCc1ccc2c3c(cccc13)-c1ccccc1-2 [TCMDC-137877] | 1970 | – | 9550 | – | 56.61 | 22.47 | – | 564 | 9.55 | 1 (1: YES) | 560 | – | – |
| CCCC(CCC)n1ccc2c3c(N)nc(N)nc3ccc21.Cl [TCMDC-137949] | < 0.2 | – | 1.7 | – | 42.83 | 73.31 | – | 2780 | – | 0 (0: NO) | 2780 | 0.0017 | 0.0017 |
